Converted amounts (≈) assume the structure as drawn. Read-outs that look alike come from different tables or passages of the source.
Experiments:
Assay type in all cases: cell-based
[1] = system: human hepatic cell line (HepG2 ATCC HB-8065); experiment: Human cell viability assay (CellTiter-Glo), HepG2; details: HepG2, 24 h incubation, tested over 1-128 μg/mL, read-out: IC50 values against HepG2
In short: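 HepG2 seeded at 20,000 cells/well, then after 24 h given two-fold serial dilutions (1-128 μg/mL, 1% DMSO) in DMEM with 0.001% FBS and 0.3% albumin. After 24 h at 37 °C, ATP luminescence (CellTiter-Glo) read; IC50 is the concentration halving viability.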

[2] = system: Staphylococcus aureus ATCC 29213; experiment: MIC, broth microdilution, S. aureus ATCC 29213
[3] = system: S. aureus NRS127 MRSA LZD resistant; experiment: MIC, S. aureus NRS127; details: Staphylococcus aureus; Table 2
[4] = system: S. aureus VRS1 MRSA VAN resistant; experiment: MIC, S. aureus VRS1; details: Staphylococcus aureus, Table 2
[5] = system: S. aureus (MRSA) ATCC 43300; experiment: MIC, S. aureus ATCC 43300; details: Staphylococcus aureus; Table 2; read-out: MIC S. aureus (MRSA) ATCC 43300 Heterogeneous MRSA strain
[6] = system: Escherichia coli ATCC 25922; experiment: MIC, broth microdilution, E. coli ATCC 25922; details: ATCC25922, Table 1, wild type strain
[7] = system: Haemophilus influenzae ATCC 49247; experiment: MIC, H. influenzae ATCC 49247; details: ATCC49247, Table 4
[8] = system: S. aureus NRS482 MRSA FQ resistant; experiment: MIC, S. aureus NRS482; details: Staphylococcus aureus; Table 2
[9] = system: S. epidermidis NRS101 MRSE; experiment: MIC, S. epidermidis NRS101; details: Staphylococcus epidermidis; Table 2; read-out: MIC S. epidermidis NRS101 MRSE AMG, ERY resistant
S. aureus NRS1 MRSA = experiment: MIC, S. aureus NRS1; details: Staphylococcus aureus; Table 2; read-out: MIC S. aureus NRS1 MRSA AMG & TET resistant
[10] = system: Enterococcus faecium ATCC 19434; experiment: MIC, E. faecium ATCC 19434; details: ATCC19434, Table 2
[11] = system: S. aureus SACPX1-SP25 MSSA - FQ resistant; experiment: microbe, parasite or virus in culture; details: Staphylococcus aureus, ATCC 29213 / MSSA, read-out: MIC S. aureus SACPX1-SP25 MSSA - FQ resistant (isogenic mutant of ATCC 29213)
[12] = system: Neisseria gonorrhoeae ATCC 49226; experiment: MIC, N. gonorrhoeae ATCC 49226; details: ATCC49226, Table 4, 24 h incubation
S. aureus NRS100 MRSA = experiment: MIC, S. aureus NRS100; details: Staphylococcus aureus; Table 2
[13] = system: Neisseria meningitidis ATCC 13090; experiment: MIC, N. meningitidis ATCC 13090; details: ATCC13090, Table 4, 24 h incubation
[14] = system: Moraxella catarrhalis ATCC 25240; experiment: MIC, M. catarrhalis ATCC 25240; details: ATCC25240, Table 4
[15] = system: Legionella pneumophila ATCC 33152; experiment: microbe, parasite or virus in culture; details: ATCC33152, 48 h, read-out: MIC Legionella pneumophila ATCC 33152
[16] = ATCC29213, Table 1, wild type strain, read-out: MIC S. aureus ATCC 29213
[17] = ATCC 29213 / MSSA, Table 2, read-out: MIC S. aureus (MSSA) ATCC 29213 CLSI control strain

Row | Compound | IC50 [1] [µg/mL] | MIC [2, 16] [µg/mL] | MIC [2, 17] [µg/mL] | MIC [3] [µg/mL] | MIC [4] [µg/mL] | MIC [5] [µg/mL] | MIC [6] [µg/mL] | MIC [7] [µg/mL] | MIC [8] [µg/mL] | MIC [9] [µg/mL] | MIC (S. aureus NRS1 MRSA) [µg/mL] | MIC [10] [µg/mL] | MIC [11] [µg/mL] | MIC [12] [µg/mL] | MIC (S. aureus NRS100 MRSA) [µg/mL] | MIC [13] [µg/mL] | MIC [14] [µg/mL] | MIC [15] [µg/mL]
1 | Cc1c(-c2cnc3[nH]ncc3c2)ccc2c3ocnc3c(=O)n(C3CC3)c12 [Compound 20, 5-cyclopropyl-6-methyl-7-(1H-pyrazolo[3,4-b]pyridine-5-yl)oxazolo[4,5-c]quinolin-4-one] | > 100 | < 1 | < 1 | < 1 | < 1 | < 1 | 1 to 10 (≈ 2.8 to 28 µM) | < 1 | < 1 | < 1 | < 1 | 1 to 10 (≈ 2.8 to 28 µM) | < 1 |  |  |  |  | 
2 | Cc1nc2c(=O)n(C3CC3)c3c(C)c(-c4ccc(N)nc4)ccc3c2o1 [Compound 23, 7-(6-amino-3-pyridyl)-5-cyclopropyl-2,6-dimethyl-oxazolo[4,5-c]quinolin-4-one] |  | < 1 | < 1 | 1 to 10 (≈ 2.89 to 28.9 µM) | 10 to 100 (≈ 28.9 to 289 µM) | < 1 | 1 to 10 (≈ 2.89 to 28.9 µM) | 1 to 10 (≈ 2.89 to 28.9 µM) | 1 to 10 (≈ 2.89 to 28.9 µM) | 1 to 10 (≈ 2.89 to 28.9 µM) | 1 to 10 (≈ 2.89 to 28.9 µM) | > 100 | 1 to 10 (≈ 2.89 to 28.9 µM) | 1 to 10 (≈ 2.89 to 28.9 µM) |  |  |  | 
3 | Cc1nc2c(=O)n(C3CC3)c3c(C)c(-c4ccc5cn[nH]c5c4)ccc3c2o1 [Compound 27, 5-cyclopropyl-7-(l H-indazol-6-yl)-2,6-dimethyl-oxazolo[4,5-c]quinolin-4-one] | 10 to 100 (≈ 27 to 270 µM) | < 1 | < 1 | 10 to 100 (≈ 27 to 270 µM) | 10 to 100 (≈ 27 to 270 µM) | < 1 | 1 to 10 (≈ 2.7 to 27 µM) | 1 to 10 (≈ 2.7 to 27 µM) | < 1 | < 1 | 1 to 10 (≈ 2.7 to 27 µM) | > 100 |  |  |  |  |  | 
4 | Cc1nc2c(=O)n(C3CC3)c3cc(N4CCC(C(C)N)C4)c(F)cc3c2o1 (centres unmarked) [Compound 54, 7-[3-(1-aminoethyl)pyrrolidin-1-yl]-5-cyclopropyl-8-fluoro-2-methyl-oxazolo[4,5-c]quinolin-4-one] | 10 to 100 (≈ 27 to 270 µM) | 1 to 10 (≈ 2.7 to 27 µM) | 1 to 10 (≈ 2.7 to 27 µM) |  |  |  | 1 to 10 (≈ 2.7 to 27 µM) | 1 to 10 (≈ 2.7 to 27 µM) |  |  |  | 10 to 100 (≈ 27 to 270 µM) |  |  | 1 to 10 (≈ 2.7 to 27 µM) |  |  | 
5 | Cc1nc2c(=O)n(C3CC3)c3cc(N4CCC(CN)C4)c(F)cc3c2o1 (centres unmarked) [Compound 57, 7-[3-(aminomethyl)pyrrolidin-1-yl]-5-cyclopropyl-8-fluoro-2-methyl-oxazolo[4,5-c]quinolin-4-one] | 10 to 100 (≈ 28.1 to 281 µM) | < 1 | < 1 |  |  |  | 1 to 10 (≈ 2.81 to 28.1 µM) | 1 to 10 (≈ 2.81 to 28.1 µM) | 1 to 10 (≈ 2.81 to 28.1 µM) |  | 1 to 10 (≈ 2.81 to 28.1 µM) | 10 to 100 (≈ 28.1 to 281 µM) | 1 to 10 (≈ 2.81 to 28.1 µM) |  |  | 1 to 10 (≈ 2.81 to 28.1 µM) |  | 
6 | Cc1nc2c(=O)n3c4c(c(N5CCC(CN)C5)c(F)cc4c2o1)OC[C@@H]3C (stereo partly drawn) [Compound 88, (2S)-6-[3-(aminomethyl)pyrrolidin-1-yl]-7-fluoro-2,12-dimethyl-4,11-dioxa-1,13-diazatetracyclo[7.6.1.0^5,^16.0^10,^14]hexadeca-5(16),6,8,10(14),12-pentaen-15-one] | 10 to 100 (≈ 26.9 to 269 µM) | < 1 | < 1 | 1 to 10 (≈ 2.69 to 26.9 µM) | 1 to 10 (≈ 2.69 to 26.9 µM) | 1 to 10 (≈ 2.69 to 26.9 µM) | 1 to 10 (≈ 2.69 to 26.9 µM) | 1 to 10 (≈ 2.69 to 26.9 µM) | 1 to 10 (≈ 2.69 to 26.9 µM) |  | 1 to 10 (≈ 2.69 to 26.9 µM) | 10 to 100 (≈ 26.9 to 269 µM) | 1 to 10 (≈ 2.69 to 26.9 µM) | 1 to 10 (≈ 2.69 to 26.9 µM) |  | 1 to 10 (≈ 2.69 to 26.9 µM) | 1 to 10 (≈ 2.69 to 26.9 µM) | 1 to 10 (≈ 2.69 to 26.9 µM)
